Experimental data taken from ChEMBL document CHEMBL3872201, “Synthesis and antiproliferative activity of a natural like glycoconjugate polycyclic compound” (2016).
The source made the active and inactive calls. The rule behind the calls is not given here.

What was measured:
[1] = Cell cycle arrest in human MDA-MB-231 cells assessed as accumulation at subG0/G1 phase at 5 uM after 24 hrs by propidium iodide staining based flow cytometric analysis (reference value: 7.6%); type: functional
[2] = Antiproliferative activity against human 786-0 cells after 48 hrs by sulforhodamine B assay; type: functional; details: 786-0, 48 h
[3] = Cytotoxicity against human MDA-MB-231 cells assessed as inhibition of cell viability at 10 uM after 24 hrs by MTT assay relative to control; type: functional; details: MDA-MB-231, 24 h
[4] = Cell cycle arrest in human MDA-MB-231 cells assessed as accumulation at subG0/G1 phase at 5 uM after 72 hrs by propidium iodide staining based flow cytometric analysis (reference value: 6.3%); type: functional
[5] = Antiproliferative activity against human SK-MEL-28 cells after 48 hrs by sulforhodamine B assay; type: functional; details: SK-MEL-28, 48 h
[6] = Cell cycle arrest in human MDA-MB-231 cells assessed as accumulation at subG0/G1 phase at 10 uM after 48 hrs by propidium iodide staining based flow cytometric analysis (reference value: 8.8%); type: functional
[7] = test system: MDA-MB-231; test: Effect on cell cycle regulatory protein in human MDA-MB-231 cells assessed as p21 level at 10 uM after 48 hrs by Western blot analysis relative to control; type: functional
[8] = Cell cycle arrest in human MDA-MB-231 cells assessed as accumulation at G2/M phase at 5 uM after 24 hrs by propidium iodide staining based flow cytometric analysis (reference value: 20.4%); type: functional
[9] = test system: MDA-MB-231; test: Cytotoxicity against human MDA-MB-231 cells assessed as inhibition of cell viability at 5 to 10 uM up to 72 hrs by MTT assay; type: functional, cell-based
[10] = Cell cycle arrest in human MDA-MB-231 cells assessed as accumulation at subG0/G1 phase at 5 uM after 48 hrs by propidium iodide staining based flow cytometric analysis (reference value: 8.8%); type: functional
[11] = Antiproliferative activity against human U251 cells after 48 hrs by sulforhodamine B assay; type: functional; details: U-251, 48 h
[12] = Antiproliferative activity against human SF268 cells after 48 hrs by sulforhodamine B assay; type: functional; details: SF-268, 48 h
[13] = Antiproliferative activity against human LOXIMVI cells after 48 hrs by sulforhodamine B assay; type: functional; details: LOX IMVI
[14] = Cell cycle arrest in human MDA-MB-231 cells assessed as accumulation at G0/G1 phase at 10 uM after 48 hrs by propidium iodide staining based flow cytometric analysis (reference value: 67%); type: functional
[15] = test system: MDA-MB-231; test: Cytotoxicity against human MDA-MB-231 cells assessed as reduction in cell number at 5 to 10 uM after 24 to 72 hrs by light microscopic analysis; type: functional, cell-based
[16] = Cell cycle arrest in human MDA-MB-231 cells assessed as accumulation at G0/G1 phase at 5 uM after 24 hrs by propidium iodide staining based flow cytometric analysis (reference value: 66.5%); type: functional
[17] = Antiproliferative activity against human MCF7 cells after 48 hrs by sulforhodamine B assay; type: functional; details: MCF7, 48 h
[18] = Cell cycle arrest in human MDA-MB-231 cells assessed as accumulation at G2/M phase after 96 to 120 hrs by propidium iodide staining based flow cytometric analysis; type: functional
[19] = Cell cycle arrest in human MDA-MB-231 cells assessed as accumulation at subG0/G1 phase at 10 uM after 24 hrs by propidium iodide staining based flow cytometric analysis (reference value: 7.6%); type: functional
[20] = test system: MDA-MB-231; test: Effect on cell cycle regulatory protein in human MDA-MB-231 cells assessed as cdc2 level at 5 uM after 24 hrs by Western blot analysis relative to control; type: functional
[21] = Antiproliferative activity against human SKOV3 cells after 48 hrs by sulforhodamine B assay; type: functional; details: SK-OV-3, 48 h
[22] = test system: MDA-MB-231; test: Effect on cell cycle regulatory protein in human MDA-MB-231 cells assessed as cyclin B1 level at 5 uM after 48 hrs by Western blot analysis relative to control; type: functional
[23] = Cell cycle arrest in human MDA-MB-231 cells assessed as accumulation at G0/G1 phase at 5 uM after 72 hrs by propidium iodide staining based flow cytometric analysis (reference value: 69.3%); type: functional
[24] = Antiproliferative activity against human UACC62 cells after 48 hrs by sulforhodamine B assay; type: functional; details: UACC-62, 48 h
[25] = Cell cycle arrest in human MDA-MB-231 cells assessed as cell flattening at 5 to 10 uM after 8 days by light microscopic analysis; type: functional, cell-based
[26] = Antiproliferative activity against human BT549 cells after 48 hrs by sulforhodamine B assay; type: functional; details: BT-549, 48 h
[27] = read-out: LC50 (the source's name)

Molecule `C=C1c2c(C)nn(-c3ccc(C#CCO[C@@H]4O[C@H](CO)[C@@H](O)[C@H](O)[C@H]4O)cc3)c2N(C)C23CC1C1(C)c4c(C)nn(-c5ccc(C#CCO[C@@H]6O[C@H](CO)[C@@H](O)[C@H](O)[C@H]6O)cc5)c4N(C)C(C)(CC12)C3` (some centres undefined) has an Activity [1] of 7.1%, a GI50 [2] of 2.66 µM and a TGI [2] of 7.78 µM. The CC50 [2, 27] was 29.6 µM, the inhibition at 10 µM [3] was 80% and the Activity [4] was 4%. The GI50 [5] was 1.9 µM, the TGI [5] was 3.52 µM and the CC50 [5, 27] was 6.5 µM. For the same molecule, the Activity [6] was 4.6%, the “fold change (FC)” value [7] was 2 and the Activity [8] was 24.4%. The inhibition [9] was “Active”, the Activity [10] was 2.1% and the GI50 [11] was 1.19 µM. The TGI [11] was 2.59 µM, the CC50 [11, 27] was 5.61 µM and the GI50 [12] was 1.75 µM. For the same molecule, the TGI [12] was 3.57 µM, the CC50 [12, 27] was 7.27 µM and the GI50 [13] was 1.37 µM. The TGI [13] was 2.79 µM, the CC50 [13, 27] was 5.69 µM and the Activity [14] was 61.3%. The Activity [15] was “Active”, the Activity [16] was 56.9% and the GI50 [17] was 1.38 µM. The TGI [17] was 3.2 µM, the CC50 [17, 27] was 7.42 µM and the Activity [18] was “Active”. For the same molecule, the Activity [19] was 2.2%, the “fold change (FC)” value [20] was 0.9 and the GI50 [21] was 1.72 µM. The TGI [21] was 3.11 µM, the CC50 [21, 27] was 5.61 µM and the “fold change (FC)” value [22] was 1. The Activity [23] was 74%, the GI50 [24] was 1.22 µM and the TGI [24] was 2.86 µM. For the same molecule, the CC50 [24, 27] was 6.71 µM, the Activity [25] was “Active” and the GI50 [26] was 1.3 µM. For the same molecule, the TGI [26] was 2.97 µM and the CC50 [26, 27] was 6.77 µM.
